Test results: publication PMC9019100, “Development of NanoLuc-targeting protein degraders and a universal reporter system to benchmark tag-targeted degradation platforms” (Nature Communications, 2022)
Where “and” joins values, the source holds several entries; their conditions need not be identical. Identical values can stand only once. Like-named read-outs stand apart in the source and are kept apart here.

Experiments:
[1] = system: MLKL^−/− HT29 cells expressing MLKL-NanoLuc; assay type: cell-based; details: for Live cells (%PI negative) after TNF+911+zVAD: MLKL-/- + MLKL NanoLuc, independent experiments
Description: Cell death was assessed by flow cytometric analysis of PI exclusion. […] Cell death was assessed by flow cytometric analysis of PI exclusion. […] Cell death was assessed by flow cytometric analysis of PI exclusion. e N = 4, f N = 3 independent experiments (symbols), EB represent mean ± SD. g Western from MLKL^−/−CASP8^−/− HT29 cells stably expressing the doxycycline-inducible C-terminal fusion protein, MLKL-NanoLuc (MLKL-NLuc) and constitutively expressing the C-terminal fusion protein caspase-8-FKBP^F36V. […] Cell death was assessed using an IncuCyte and Cytotox-Red uptake. N = 3 independent experiments, one representative experiment shown, EB represent mean ± SD.
Degrader compounds or a DMSO vehicle control were added for 5 h, as stated in the Fig. legends. Cells were detached using Trypsin-EDTA (Merck) and resuspended in cell supernatants containing 10 μg/mL propidium iodide (PI). PI exclusion analysis was performed using an LSR II flow cytometer (Becton Dickinson, NJ) with 10,000 single-cell events per sample. Flow cytometry data were analysed using WEASEL version 2.7 software (Frank Battye).

[2] = molecular target: recombinant NanoLuc enzyme (Oplophorus gracilirostris, UniProt Q9GV45, A31E/A60N/A81I/F95D/I117V/K70R/L54V/L99Q/M102K/N193R/P142E/Q151K/Q38R/Q45L/V71I/Y165I); assay type: biochemical
Fibrillarin-NanoLuc = molecular target: T1, Fibrillarin-NanoLuc (Oplophorus gracilirostris, UniProt Q9GV45, A31E/A60N/A81I/F95D/I117V/K70R/L54V/L99Q/M102K/N193R/P142E/Q151K/Q38R/Q45L/V71I/Y165I); assay: cell-based; details: HEK-293T; 500 nM, 10 h; read-out: Dmax (densitometry)
T1 construct: endogenous in cells; host or cells: 293T, CRISPR/PITCh knock-in at the FBL locus

MLKL-NanoLuc = molecular target: T2, MLKL-NanoLuc (Oplophorus gracilirostris, UniProt Q9GV45, A31E/A60N/A81I/F95D/I117V/K70R/L54V/L99Q/M102K/N193R/P142E/Q151K/Q38R/Q45L/V71I/Y165I); assay: Western blot of MLKL^−/− HT29 cells expressing MLKL-NanoLuc; assay type: cell-based, human; details: 62.5-500 nM, 5 h
T2 construct: expressed in transfected cells; host or cells: MLKL-/- HT29 (A12); MLKL-/-CASP8-/- HT29 (A24); doxycycline-inducible
Description: (§1) Cells were seeded in 24-well plates ±doxycycline (20 ng/mL for HEK293T, 40 ng/mL for HT29) and incubated overnight (16–24 h) prior to degrader treatments, as stated in the Fig. legends. All timepoint experiments were performed as reverse timepoints in order to harvest all cells at the same time. At the indicated time points cells were lysed in NuPAGE LDS lysis buffer (Invitrogen) diluted to 1× in DISC lysis buffer (20 mM Tris-HCl pH7.5, 150 mM NaCl, 2 mM EDTA pH 8.0, 1% Triton X-100, 10% glycerol, H20)) supplemented with β-Mercaptoethanol (2%), protease and phosphatase inhibitors. Lysates were run through polypropylene columns (Pierce) to shred DNA. […] Membranes were blocked in 5% skim milk (Devondale) in TBS-T (TBS, 0.1% Tween-20) for 1 h prior to immunoblotting with primary antibodies overnight at 4 °C. Unless stated otherwise, all primary antibodies were diluted in TBS-T (TBS, 0.1% Tween-20) containing 5% BSA (Sigma A8022) and 0.04% sodium azide: HaloTag (1:1000, Promega; G9211), NanoLuc (1:500, Promega; N7000), β-actin (1:20,000, Sigma; A-1798), MLKL (1:1000, produced in-house; 3H1 clone)[39], FKBP (1:1000, R&D systems; 422513), caspase-8 (1:1000, Proteintech; 13423-1-AP), Histone H3 (1:1000, Abcam; ab10799), Cadherin (1:1000, Cell Signalling Technologies; 4068 T). […]
(§2) NC4. […] Cell death was assessed by flow cytometric analysis of PI exclusion. […]

NanoLuc-SLC38A2 = molecular target: T3, NanoLuc-SLC38A2 (Oplophorus gracilirostris, UniProt Q9GV45, A31E/A60N/A81I/F95D/I117V/K70R/L54V/L99Q/M102K/N193R/P142E/Q151K/Q38R/Q45L/V71I/Y165I); assay: Western blot of 293T cells expressing NanoLuc-SLC38A2; assay type: cell-based; details: 125-500 nM, 5 h
T3 construct: expressed in transfected cells; host or cells: 293T, doxycycline-induced
Description: as §1, §2

MLKL-NLuc = molecular target: T4, MLKL-NLuc (Oplophorus gracilirostris, UniProt Q9GV45, A31E/A60N/A81I/F95D/I117V/K70R/L54V/L99Q/M102K/N193R/P142E/Q151K/Q38R/Q45L/V71I/Y165I); assay type: cell-based; details: 5 h
T4 construct: expressed in transfected cells; host or cells: MLKL-/- HT29 (A12); MLKL-/-CASP8-/- HT29 (A24); doxycycline-inducible

Fibrillarin-FKBP^F36V = molecular target: T5, Fibrillarin-FKBP^F36V (Homo sapiens, UniProt P62942, F37V); assay type: cell-based; details: 500 nM, 10 h
T5 construct: endogenous in cells; host or cells: 293T, CRISPR/PITCh knock-in at the FBL locus

MLKL-FKBP^F36V = MLKL-FKBP^F36V (Homo sapiens, UniProt P62942, F37V); assay type: cell-based; details: 5 h, low nM concentrations
Description: All experiments were repeated independently three times, and a representative Fig. is shown.
(§3) All timepoint experiments were performed as reverse timepoints in order to harvest all cells at the same time. At the indicated time points cells were lysed in NuPAGE LDS lysis buffer (Invitrogen) diluted to 1× in DISC lysis buffer (20 mM Tris-HCl pH7.5, 150 mM NaCl, 2 mM EDTA pH 8.0, 1% Triton X-100, 10% glycerol, H20)) supplemented with β-Mercaptoethanol (2%), protease and phosphatase inhibitors. Lysates were run through polypropylene columns (Pierce) to shred DNA. […] Membranes were blocked in 5% skim milk (Devondale) in TBS-T (TBS, 0.1% Tween-20) for 1 h prior to immunoblotting with primary antibodies overnight at 4 °C. Unless stated otherwise, all primary antibodies were diluted in TBS-T (TBS, 0.1% Tween-20) containing 5% BSA (Sigma A8022) and 0.04% sodium azide: HaloTag (1:1000, Promega; G9211), NanoLuc (1:500, Promega; N7000), β-actin (1:20,000, Sigma; A-1798), MLKL (1:1000, produced in-house; 3H1 clone)[39], FKBP (1:1000, R&D systems; 422513), caspase-8 (1:1000, Proteintech; 13423-1-AP), Histone H3 (1:1000, Abcam; ab10799), Cadherin (1:1000, Cell Signalling Technologies; 4068 T). Membranes were washed 3 × 5–10 min in TBS-T (TBS, 0.1% Tween-20) prior to the addition of the appropriate secondary antibodies conjugated with horseradish peroxidase (Jaxon laboratories). […]

murine MLKL-FKBP^F36V = molecular target: T6, murine MLKL-FKBP^F36V (Homo sapiens, UniProt P62942, F37V); assay type: cell-based; details: 31.2-500 nM, 5 h
T6 construct: expressed in transfected cells; host or cells: Mlkl-/- mouse dermal fibroblasts, doxycycline-inducible
T6 sequence (P62942 whole entry F37V): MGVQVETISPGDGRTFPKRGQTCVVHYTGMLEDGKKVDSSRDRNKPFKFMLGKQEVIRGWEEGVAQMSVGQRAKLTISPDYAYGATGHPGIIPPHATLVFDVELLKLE
Description: as §3

MLKL-FKBP^F36V, sequence (P62942 whole entry F37V): as above
T5 sequence (P62942 whole entry F37V): as above
T1 sequence (Q9GV45 other isoform, or with tags, fused parts or gaps with the stated changes): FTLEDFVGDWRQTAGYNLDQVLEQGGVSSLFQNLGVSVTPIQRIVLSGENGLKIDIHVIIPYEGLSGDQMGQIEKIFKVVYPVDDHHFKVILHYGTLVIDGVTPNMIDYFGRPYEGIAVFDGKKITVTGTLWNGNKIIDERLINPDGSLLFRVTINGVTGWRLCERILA
T4 sequence (Q9GV45 other isoform, or with tags, fused parts or gaps with the stated changes): as above
T3 sequence (Q9GV45 other isoform, or with tags, fused parts or gaps with the stated changes): as above
T2 sequence (Q9GV45 other isoform, or with tags, fused parts or gaps with the stated changes): as above
recombinant NanoLuc enzyme, sequence (Q9GV45 other isoform, or with tags, fused parts or gaps with the stated changes): as above

SMILES	effect on MLKL-NanoLuc-driven necroptosis ([1]; 5 h pre-treatment, then TSZ 24 h)	Live cells (%PI negative) after TNF+911+zVAD ([1]; 31.25nM)	Live cells (%PI negative) after TNF+911+zVAD ([1]; 62.5nM)	Live cells (%PI negative) after TNF+911+zVAD ([1]; 250nM)	Live cells (%PI negative) after TNF+911+zVAD ([1]; 500nM)	Live cells (%PI negative) after TNF+911+zVAD ([1]; 1000nM)	reduced inhibition of NanoLuc enzymatic activity compared to the parent inhibitor (NanoLuc inhibitor 2) [2]	Dmax at 0.5 µM (Fibrillarin-NanoLuc)	degradation of MLKL-NanoLuc, comparison of NanoTACs (MLKL-NanoLuc)	NanoLuc-SLC38A2 level by Western blot (NanoLuc-SLC38A2)	depletion of MLKL-NLuc (MLKL-NLuc)	Dmax (densitometry) (Fibrillarin-FKBP^F36V)	MLKL-FKBP^F36V protein level by Western blot (MLKL-FKBP^F36V)	degradation of murine MLKL-FKBP^F36V (murine MLKL-FKBP^F36V)
CCc1cccc(N(CC)C(=O)Cn2c(C(=O)NC3CCC(C(=O)NCCCCCCCC(=O)NCCCCNc4cccc5c4C(=O)N(C4CCC(=O)NC4=O)C5=O)CC3)cc3ccccc32)c1 (centres unmarked) [NC4]	sufficient to reduce MLKL-NanoLuc-driven necroptosis	46.4 and 73.2 and 58.1	53.4 and 72.4 and 68.5	58.1 and 71.5 and 68.6	54.7 and 68.7 and 64.4	53.1 and 66.7 and 61.4	~ 30 fold	~52.9%	most effective degradation profile	reduction in Nanoluc-SLC38A2	could be depleted	–	–	–
CC[C@H](C(=O)N1CCCC[C@H]1C(=O)O[C@H](CCc1ccc(OC)c(OC)c1)c1ccccc1OCC(=O)NCCCCCCC(=O)N[C@H](C(=O)N1C[C@H](O)C[C@H]1C(=O)N[C@@H](C)c1ccc(-c2scnc2C)cc1)C(C)(C)C)c1cc(OC)c(OC)c(OC)c1 [FV1]	–	–	–	–	–	–	–	–	–	–	–	~ 95.9%	no detectable protein	comparable degradation
